From ChEMBL document CHEMBL2406903, “FPRL-1 Receptor Modulators May Provide Treatment for Inflammation” (ACS Med Chem Lett, 2013)

Biological target: T1, N-formyl peptide receptor 2 (Homo sapiens) (UniProt P25090)
T1 sequence (whole entry): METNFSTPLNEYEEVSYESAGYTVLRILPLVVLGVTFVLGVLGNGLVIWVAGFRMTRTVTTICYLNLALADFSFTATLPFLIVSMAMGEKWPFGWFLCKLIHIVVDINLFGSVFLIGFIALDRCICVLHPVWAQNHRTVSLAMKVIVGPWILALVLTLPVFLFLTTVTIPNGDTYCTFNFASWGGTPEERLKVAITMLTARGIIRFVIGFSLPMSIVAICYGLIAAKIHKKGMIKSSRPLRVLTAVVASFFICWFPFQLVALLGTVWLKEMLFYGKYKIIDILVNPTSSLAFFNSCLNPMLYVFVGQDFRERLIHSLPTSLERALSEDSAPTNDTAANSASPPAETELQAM
Assay: Modulation of FPRL1 (unknown origin) expressed in CHO-Ga16 cells assessed as induction of calcium activity at 0.61 to 10000 nM by FLIPR assay relative to control
Format: functional, cell-based

| fold change (FC) | SMILES |
| --- | --- |
| 0.45 | CC[C@@H](C)[C@@H](NC(=O)Nc1ccc(Br)cc1)C(=O)NCC(=O)O |
| 0.92 | CC(C)C[C@H](NC(=O)Nc1ccc(C(F)(F)F)cc1)C(=O)NC(C)(C)C(=O)O |
| 0.96 | CC(C)C[C@H](NC(=O)Nc1ccc(Br)cc1)C(=O)NC(C)(C)C(=O)O |
